Data published in publication PMC9276676, “Difluoromethylornithine (DFMO) and AMXT 1501 inhibit capsule biosynthesis in pneumococci” (Scientific Reports, 2022).

Assays:
Experiment in all cases: DFMO susceptibility and growth in THY (OD600, MIC)
Assay type in all cases: cell-based, Streptococcus pneumoniae
Set-up in all cases: Growthrate: unit not given here
[1] = system: S. pneumoniae serotype 3 (WU2)
Procedure: (§1) S. pneumoniae serotypes 4 (TIGR4), 2 (D39), 19F (EF3030) and 3 (WU2) were cultured in Todd Hewitt broth supplemented with yeast extract (THY). Supplementation with DFMO ranging from 1.1 to 549 mM was carried out in triplicate in a 96-well plate and incubated at 37 °C and 5% CO2 in a Cytation™ 5 cell imaging multi-mode reader (BioTek, Winooski, VT). The change in optical density at 600 nm (OD600) was measured every hour for 24 h and used to determine the minimum inhibitory concentration (MIC) of DFMO. The optical density data was analyzed using GrowthRates 4.0 software. To determine whether DFMO at sub-MIC is bacteriostatic or lethal to pneumococcal cells, all strains were cultured in the presence or absence of 1/2 MIC DFMO. OD600 was measured every hour and CFU were enumerated on a blood agar plate (BAP) every 2 h over an 8 h incubation period.

[2] = system: S. pneumoniae serotype 4 (TIGR4)
Procedure: as §1

[3] = system: S. pneumoniae serotype 19F (EF3030)
Procedure: as §1

[4] = system: S. pneumoniae serotype 2 (D39); conditions: D39
Procedure: as §1

Structure (SMILES): NCCC[C@](N)(C(=O)O)C(F)F [DFMO, α-difluoromethylornithine]
- difference in growth rate in presence or absence of DFMO (GrowthRates software) [1]: did not identify any significant differences
- growth curve versus control ([1]; 1/2 MIC DFMO (137 mM)): longer lag phase and a lower maximal O.D
- Growthrate ([1]; DFMO 0.2 µg/µL): 0.046
- Max OD ([1]; DFMO 0.2 µg/µL): 0.497
- Growthrate ([1]; DFMO 0.4 µg/µL): 0.047
- Max OD ([1]; DFMO 0.4 µg/µL): 0.509
- Growthrate ([1]; DFMO 0.8 µg/µL): 0.047
- Max OD ([1]; DFMO 0.8 µg/µL): 0.548
- Growthrate ([1]; DFMO 1.6 µg/µL): 0.046
- Max OD ([1]; DFMO 1.6 µg/µL): 0.575
- Growthrate ([1]; DFMO 3.1 µg/µL): 0.050
- Max OD ([1]; DFMO 3.1 µg/µL): 0.650
- Growthrate ([1]; DFMO 6.3 µg/µL): 0.048
- Max OD ([1]; DFMO 6.3 µg/µL): 0.652
- Growthrate ([1]; DFMO 12.5 µg/µL): 0.048
- Max OD ([1]; DFMO 12.5 µg/µL): 0.696
- Growthrate ([1]; DFMO 25.0 µg/µL): 0.046
- Max OD ([1]; DFMO 25.0 µg/µL): 0.303
- Growthrate ([1]; DFMO 50.0 µg/µL): 0.000
- Growthrate ([1]; DFMO 100.0 µg/µL): 0.000
- difference in growth rate in presence or absence of DFMO (GrowthRates software) [2]: did not identify any significant differences
- Growthrate ([2]; DFMO 0.2 µg/µL): 0.055
- Max OD ([2]; DFMO 0.2 µg/µL): 1.583
- Growthrate ([2]; DFMO 0.4 µg/µL): 0.056
- Max OD ([2]; DFMO 0.4 µg/µL): 1.619
- Growthrate ([2]; DFMO 0.8 µg/µL): 0.056
- Max OD ([2]; DFMO 0.8 µg/µL): 1.657
- Growthrate ([2]; DFMO 1.6 µg/µL): 0.057
- Max OD ([2]; DFMO 1.6 µg/µL): 1.695
- Growthrate ([2]; DFMO 3.1 µg/µL): 0.056
- Max OD ([2]; DFMO 3.1 µg/µL): 1.654
- Growthrate ([2]; DFMO 6.3 µg/µL): 0.055
- Max OD ([2]; DFMO 6.3 µg/µL): 1.635
- Growthrate ([2]; DFMO 12.5 µg/µL): 0.056
- Max OD ([2]; DFMO 12.5 µg/µL): 1.560
- Growthrate ([2]; DFMO 25.0 µg/µL): 0.052
- Max OD ([2]; DFMO 25.0 µg/µL): 1.280
- Growthrate ([2]; DFMO 50.0 µg/µL): 0.000
- Max OD ([2]; DFMO 50.0 µg/µL): 0.000
- Growthrate ([2]; DFMO 100.0 µg/µL): 0.000
- Max OD ([2]; DFMO 100.0 µg/µL): 0.000
- difference in growth rate in presence or absence of DFMO (GrowthRates software) [3]: did not identify any significant differences
- Growthrate ([3]; DFMO 0.2 µg/µL): 0.035
- Max OD ([3]; DFMO 0.2 µg/µL): 1.413
- Growthrate ([3]; DFMO 0.4 µg/µL): 0.021
- Max OD ([3]; DFMO 0.4 µg/µL): 1.458
- Growthrate ([3]; DFMO 0.8 µg/µL): 0.037
- Max OD ([3]; DFMO 0.8 µg/µL): 1.485
- Growthrate ([3]; DFMO 1.6 µg/µL): 0.037
- Max OD ([3]; DFMO 1.6 µg/µL): 1.495
- Growthrate ([3]; DFMO 3.1 µg/µL): 0.036
- Max OD ([3]; DFMO 3.1 µg/µL): 1.517
- Growthrate ([3]; DFMO 6.3 µg/µL): 0.035
- Max OD ([3]; DFMO 6.3 µg/µL): 1.538
- Growthrate ([3]; DFMO 12.5 µg/µL): 0.030
- Max OD ([3]; DFMO 12.5 µg/µL): 1.513
- Growthrate ([3]; DFMO 25.0 µg/µL): 0.040
- Max OD ([3]; DFMO 25.0 µg/µL): 1.319
- Growthrate ([3]; DFMO 50.0 µg/µL): 0.000
- Max OD ([3]; DFMO 50.0 µg/µL): 0.000
- Growthrate ([3]; DFMO 100.0 µg/µL): 0.000
- Max OD ([3]; DFMO 100.0 µg/µL): 0.000
- difference in growth rate in presence or absence of DFMO (GrowthRates software) [4]: did not identify any significant differences
- growth curve versus control ([4]; 1/2 MIC DFMO (137 mM)): longer lag phase and a lower maximal O.D
- Growthrate ([4]; DFMO 0.2 µg/µL): 0.025
- Max OD ([4]; DFMO 0.2 µg/µL): 1.555
- Growthrate ([4]; DFMO 0.4 µg/µL): 0.019
- Max OD ([4]; DFMO 0.4 µg/µL): 1.573
- Growthrate ([4]; DFMO 0.8 µg/µL): 0.018
- Max OD ([4]; DFMO 0.8 µg/µL): 1.615
- Growthrate ([4]; DFMO 1.6 µg/µL): 0.040
- Max OD ([4]; DFMO 1.6 µg/µL): 1.648
- Growthrate ([4]; DFMO 3.1 µg/µL): 0.039
- Max OD ([4]; DFMO 3.1 µg/µL): 1.642
- Growthrate ([4]; DFMO 6.3 µg/µL): 0.037
- Max OD ([4]; DFMO 6.3 µg/µL): 1.647
- Growthrate ([4]; DFMO 12.5 µg/µL): 0.036
- Max OD ([4]; DFMO 12.5 µg/µL): 1.613
- Growthrate ([4]; DFMO 25.0 µg/µL): 0.029
- Max OD ([4]; DFMO 25.0 µg/µL): 0.985
- Growthrate ([4]; DFMO 50.0 µg/µL): 0.000
- Max OD ([4]; DFMO 50.0 µg/µL): 0.000
- Growthrate ([4]; DFMO 100.0 µg/µL): 0.000
- Max OD ([4]; DFMO 100.0 µg/µL): 0.000
